According to ChEMBL document CHEMBL4177630, “Discovery and evaluation of Cav3.2-selective T-type calcium channel blockers” (Bioorg Med Chem Lett, 2017):
Values after ≈ are worked out from the molar mass of the structure shown.

Key:
[1] = Drug level in Wistar rat brain at 100 mg/kg, po measured after 1 hr; format: ADME, organism-based; conditions: read-out: Drug uptake
[2] = Intrinsic clearance in rat liver microsomes; format: ADME, microsome; conditions: read-out: CLH
[3] = Plasma concentration in Wistar rat at 100 mg/kg, po measured after 1 hr; format: ADME, organism-based
[4] = Drug level in Wistar rat CSF at 100 mg/kg, po measured after 1 hr; format: ADME, organism-based, Cerebrospinal fluid; conditions: read-out: Drug uptake
[5] = Aqueous solubility of the compound at pH 7; format: physicochemical
[6] = Fraction unbound in Wistar rat plasma at 100 mg/kg, po measured after 1 hr; format: ADME, organism-based; conditions: in vivo
[7] = Plasma concentration in Wistar rat at 10 mg/kg, po measured after 1 hr; format: ADME, organism-based
[8] = Drug level in Wistar rat brain at 10 mg/kg, po measured after 1 hr; format: ADME, organism-based; conditions: read-out: Drug uptake
[9] = Fraction unbound in Wistar rat plasma at 10 mg/kg, po measured after 1 hr; format: ADME, organism-based; conditions: in vivo
[10] = Drug level in Wistar rat CSF at 10 mg/kg, po measured after 1 hr; format: ADME, organism-based, Cerebrospinal fluid; conditions: read-out: Drug uptake

With CC(C)OCc1ccccc1CNC(=O)c1c2c(c(Cl)n1C)CC(C)(C)CC2 the concentration at 1 h [1] was 436 nM, the microsomal CLint [2] was greater than 1250 µL/min/mg and the concentration at 1 h [3] was 397 nM. The concentration at 1 h [4] was less than 0.7 nM, the solubility [5] was less than 1 µg/mL and the “Cp(f)” value [6] was less than 0.4 nM.
In the case of Cc1onc(CNC(=O)c2c3c(c(Cl)n2C)CC(C)(C)CC3)c1Cn1cccn1, the concentration at 1 h [1] is reported as 1020 nM, the microsomal CLint [2] is reported as greater than 1250 µL/min/mg and the concentration at 1 h [3] is reported as 530 nM. For the same compound, the concentration at 1 h [4] was 17 nM, the solubility [5] was 7 µg/mL (≈ 16.8 µM) and the “Cp(f)” value [6] was 1.6 nM.
In the case of Cn1c(Cl)c2c(c1C(=O)NCc1ncccc1N1CC[C@H](F)C1)CCC(C)(C)C2, the solubility [5] is reported as less than 1 µg/mL.
For Cn1c(Cl)c2c(c1C(=O)NCc1ccncc1OCC(F)(F)F)CCC(C)(C)C2, the concentration at 1 h [1] was 12100 nM, the microsomal CLint [2] was 645 µL/min/mg and the concentration at 1 h [3] was 5210 nM. The concentration at 1 h [4] was 23 nM, the solubility [5] was 1 µg/mL (≈ 2.33 µM) and the “Cp(f)” value [6] was 5.2 nM.
Work on Cn1c(Cl)c2c(c1C(=O)NCc1cccnc1OCC(F)(F)F)CCC(C)(C)C2 yielded a concentration at 1 h [7] of 353 nM, a microsomal CLint [2] of 420 µL/min/mg and a concentration at 1 h [8] of 4720 nM. For the same compound, the solubility [5] was less than 1 µg/mL, the “Cp(f)” value [9] was less than 0.35 nM and the concentration at 1 h [10] was 6 nM.
